For assay [1], the system named is streptozotocin-induced diabetic rats. Put plainly: chronic subcutaneous (osmotic minipump) treatment, glycemia of streptozotocin (45 mg/kg) diabetic rats. The format is in vivo, rat. The note with it: for effect on glycemia: 2.5 μmol/kg/day subcutaneous by osmotic minipumps, about two weeks. Here is the method: Insulin concentrations were determined before and after treatment.
The effect of chronic administration of hexaquis(benzylammonium) decavanadate on glycemia from diabetic rats was determined. Thus, diabetes was induced in rats by intravenous administration of streptozotocin, which destroys the β-pancreatic cells that produce insulin.
(§1) Chronic in vivo efficacy of B6V10 was evaluated in streptozotocin-induced diabetic rats and in db/db mice. Streptozotocin-induced (45 mg/kg) diabetic rats were subcutaneously treated with hexaquis(benzylammonium) decavanadate (2.5 μmol/kg) (B6V10, solid squares, FIG. 8A) or with decavanadate (2.5 μmol/kg) (V10, open circles, FIG. 8A) delivered subcutaneously by osmotic minipumps implanted in the dorsal region. Diabetic rats were also sham-operated (untreated, solid diamonds, FIG. 8A). […] These experiments were repeated using an oral administration protocol. Streptozotocin-induced (45 mg/kg) diabetic rats were orally treated with hexaquis(benzylammonium) decavanadate (5 μmol/kg from day 0 to day 7 and 10 μmol/kg/day from day 7 to day 17) (B6V10, solid squares, FIG. 8B) or received decavanadate (10 μmol/kg) (V10, open circles, FIG. 8B). Nondiabetic rats were also untreated (solid triangles, FIG. 8B).

Assay [2] has the same test system. The experiment in a line: chronic oral treatment, glycemia of streptozotocin (45 mg/kg) diabetic rats. The format is in vivo, rat. As to the method: The effect of the oral administration of hexaquis(benzylammonium) decavanadate on glycemia from diabetic rats was also studied. Diabetes was induced in rats by intravenous administration of streptozotocin, and subsequently, a hexaquis(benzylammonium) decavanadate or sodium decavanadate unique dose was administered to the rats. […] After seven days of treatment, the dose was increased at 10 μmol/kg/day which was maintained for an additional ten days. […] Thus, glycemia in sodium decavanadate treated rats was approximately 450 mg/dl and glycemia of hexaquis(benzylammonium) decavanadate treated rats was approximately 250 mg/dl.
as §1

The subject of assay [3] is isolated mouse adipocytes. The experiment in a line: glucose transport (2-DG) in isolated mouse adipocytes. The format is cell-based. The conditions noted are these: 100 μM. Here is the method: Adipose cells from FVB mice were incubated for 45 minutes in basal conditions (Basal) or in the presence of 100 nM insulin (Ins), and different concentrations of hexaquis(benzylammonium) decavanadate (B6V10) in the absence or in the presence of 1 mM semicarbazide (SCZ) and thereafter, 2-DG transport was measured over 5 min.

The subject of assay [4] is isolated rat adipocytes. Put plainly: glucose transport (2-deoxyglucose uptake) in isolated rat adipocytes. The format is cell-based. The conditions noted are these: for stimulatory effect on glucose transport in the presence of semicarbazide: 1 mM semicarbazide (SSAO inhibitor); for stimulation of glucose transport: 45 min incubation. Here is the method:
In order to determine whether salts formed by vanadate and benzylamine could produce an insulin mimetic effect, the effect of increasing concentrations of hexaquis(benzylammonium) decavanadate on glucose transport activity in isolated rat adipocytes was tested. Hexaquis(benzylammonium) decavanadate induced the stimulation of glucose transport which was perceptible from concentrations of 0.5 μM, with a maximal effect observed 2.5 μM and the semimaximal effect above 1 μM. […] The maximum effect provoked by incubation with hexaquis(benzylammonium) decavanadate was greater than that produced by the presence of benzylamine and vanadate in combination (FIG. 1). […] In similar assays, the activity of hexaquis(benzylammonium) decavanadate, pentaquis(benzylammonium) decavanadate and tetraquis(benzylammonium) decavanadate on glucose transport activity in isolated rat adipocytes were analyzed.
To determine the possible insulin mimetic effect of certain vanadium arylalkylamines, the capacity of these compounds to enhance glucose transport in isolated rat adipocytes was tested. Adipose cells from Wistar rats were incubated for 45 minutes in basal conditions (Basal) or in the presence of 100 nM insulin (Ins), and different concentrations of. hexaquis(benzylammonium) decavanadate (B6V10) in the absence or in the presence of 1 mM semicarbazide (SCZ). Subsequently, 2-DG transport was measured over a 5 min. interval.
The effects of the three tested compounds (B6V10, B5V10 and B4V10) were compared. Adipose cells from Wistar rats were incubated for 45 minutes in basal conditions (Basal) or in the presence of 100 nM insulin (Ins), and different concentrations of. decavanadate (V10), hexaquis(benzylammonium) decavanadate (B6V10), pentaquis(benzylammonium) decavanadate (B5V10) or tetraquis(benzylammonium) decavanadate (B4V10) in the absence or in the presence of 1 mM semicarbazide (SCZ). 2-DG transport was measured over 5 min. intervals. […] The stimulation of all three compounds on glucose transport was blocked in the presence of semicarbazide.
In additional experiments, compounds shown in FIG. 6A (named 2-(4-fluoro-phenyl)-ethylamine (compound A), 3-phenyl-propylamine (compound B), 4-fluoro-benzylamine (compound C) and 4-phenyl-butylamine (compound D)) were assessed using the experimental methods set forth above for the capacity to stimulate 2-DG uptake in isolated rat adipocytes. Adipose cells from Wistar rats were incubated for 45 minutes in basal conditions (Basal) or in the presence of 100 nM insulin (Ins), and different concentrations of vanadium salts of 2-(4-fluoro-phenyl)-ethylamine (compound A), 3-phenyl-propylamine (compound B), 4-fluoro-benzylamine (compound C) and 4-phenyl-butylamine (compound D). 2-DG transport was measured over 5 min.
The effects of incubation with semicarbazide or phosphatidylinositol 3-kinase inhibitors were also investigated. Adipose cells were incubated with B6V10 (25 μM, 45 min) in the absence or presence of wortmannin (2 μM, 45 min), LY294002 (10 μM, 45 min) or semicarbazide (1 mM, 45 min) and thereafter 2-deoxyglucose uptake was determined during 5 min. Activation of protein kinase B phosphorylation induced by B6V10 was blocked by semicarbazide and it was not observed by decavanadate. In addition, phosphatidylinositol 3-kinase inhibitors wortmannin and LY294002 blocked B6V10-induced glucose transport (FIG. 7E).

Assay [5] deals with adipocyte lipolysis. Put plainly: adipocyte lipolysis. The format is cell-based.
Setting [6] is: listed as hexaquis(benzylammonium) decavanadate.

“Also recorded” adds a separate entry of the source. Where only a bound is given, the exact number is not on record here.

Turning to “hexaquis(benzylammonium) decavanadate [Example B6V10]”, the “time of treatment after which reduction of hyperglycemia was detected” value in assay [1] (2.5 μmol/kg/day subcutaneous) was “four”. The effect on glycemia entry in assay [1] is on record as “significant correction of hyperglycemia; also recorded: significant lowering in blood glucose levels; also recorded: ameliorated hyperglycemia”; in assay [1] (setting [6]), “rapid reduction of the hyperglycemia”; in assay [2] (daily oral administration, 17 days), “significant correction of hyperglycemia; also recorded: significant lowering in blood glucose levels; also recorded: ameliorated hyperglycemia”. The “day of treatment from which glycemia differed significantly from the untreated group” value in assay [1] (Bonferroni post-tests, P<0.01, FIG. 8A) is 8. The “time of treatment after which decrease of hyperglycemia was detected” value in assay [2] (oral 5 μmol/kg/day) was “two”. In assay [2] (oral 5 μmol/kg/day for seven days), the effect on hyperglycemia entry is recorded as “moderate decrease of hyperglycemia”. For the same substance, in assay [2] (oral 10 μmol/kg/day from day 7 for additional ten days), the “effect of dosage increase on glycemia” value is “additional decrease in glycemia”. The glycemia entry in assay [2] (oral, after dosage increase to 10 μmol/kg/day) is “approximately 250 mg/dl”. Also, the “stimulation of glucose transport (increase)” value in assay [3] stood at 93%. The “stimulation of glucose transport compared with combination of 100 μM benzylamine and 100 μM vanadate” value in assay [4] (25 μM B6V10, data not shown) was “greater stimulation”. The “stimulatory effect on glucose transport in the presence of semicarbazide” value in assay [4] was “completely blocked”; in assay [4] (setting [6]) it was “completely blocked; also recorded: inhibited”. Moreover, in assay [4] (combination 100 μM sodium vanadate and 100 μM benzylamine (FIG. 1)), the “maximum effect on glucose transport compared with benzylamine and vanadate in combination” value was “greater”. In addition, the “maximal effect on glucose transport relative to the maximal stimulation caused by insulin” value in assay [4] (insulin 100 nM) amounted to 85%. Further, the “concentration at which maximal effect on glucose transport was observed” value in assay [4] (isolated rat adipocytes) stood at 2.5 µM. For the same substance, in assay [4] (isolated rat adipocytes), the “concentration from which stimulation of glucose transport was perceptible” value amounted to 0.5 µM. Moreover, the “stimulation of glucose transport” value in assay [4] (isolated rat adipocytes) is on record as “stimulated glucose transport in rat adipocytes in a concentration-dependent manner”; in assay [4] (isolated rat adipocytes, listed as hexaquis(benzylammonium) decavanadate), “pronounced stimulation”. Moreover, in assay [4] (isolated rat adipocytes, read-out: semimaximal effect on glucose transport), the EC50 was greater than 1000 nM. Further, the adipocyte lipolysis result in assay [5] was “inhibited”.

Values taken from patent publication US20080227809A1, “Arylalkylamine Vanadium (V) Salts for the Treatment and/or Prevention of Diabetes Mellitus” (GENMEDICA THERAPEUTICS SL, priority 2004, published 2008).
